Assay results taken from patent US6734139B1, “N-aryl-uracile-based herbicides” (priority 1999, dated 2004).
Where “and” joins values, the source holds several entries; their conditions need not be identical. Identical values can stand only once.

Assays:
Assay type in all cases: in vivo
Amaranthus = assay: Post-emergence test (herbicidal action, Colby): Amaranthus
Galium [1] = assay: Post-emergence test (herbicidal action, Colby): Galium
weeds = assay: Pre-emergence test (herbicidal action against weeds, Colby)
Excerpt: (§1) The expected action for a given combination of two herbicides can be calculated as follows (cf. COLBY, S. R.: “Calculating synergistic and antagonistic responses of herbicide combinations”, Weeds 15, Pages 20-22, 1967):
(§2) If the actual damage exceeds the calculated value, the combination has a superadditive effect, that is to say a synergistic effect.
The theoretically expected activity for a given combination of three herbicides can likewise be found in the literature mentioned above.
Solvent: 2 to 3 parts by weight of acetone or N,N-dimethyl-formamide
Emulsifier: 1 part by weight of alkylaryl polyglycol ether
(§3) To produce a suitable preparation of active compound, 1 part by weight of active compound is mixed with the stated amount of solvent, the stated amount of emulsifier is added and the concentrate is diluted with water to the desired concentration. Formulated products are dissolved in water and then diluted with water to the desired concentration.
(§4) The solutions of the other mixing components (active compounds or safeners) are prepared analogously. The separately prepared solutions of the various mixing components are then combined and, if appropriate, additional substances (formulation auxiliaries, additives, etc.) are added and, if appropriate, water is added to prepare the desired dilution.
Seeds of the test plants are sown in standard soil. After 24 hours, the soil is sprayed with the preparation of active compound such that the particular amount of active compound desired in each case is applied per unit area. The concentration of active compound in the spray liquor is chosen such that the particular amount of active compound desired in each case is applied in 500 litres of water per hectare. The containers with the test plants are kept in a greenhouse at controlled temperature and controlled illumination until evaluation.
(§5) After three weeks, the degree of damage to the plants is rated in % damage in comparison to the development of the untreated control. The figures denote
(§6) 0%=no effect/no damage (like untreated control)

Alopecurus = assay: Pre-emergence test (herbicidal action, Colby): Alopecurus
Digitaria = assay: Pre-emergence test (herbicidal action, Colby): Digitaria
Echinochloa = assay: Pre-emergence test (herbicidal action, Colby): Echinochloa
Setaria = assay: Pre-emergence test (herbicidal action, Colby): Setaria
Abutilon [2] = assay: Pre-emergence test (herbicidal action, Colby): Abutilon; settings: for pest or weed control at 30 g/ha: 30 g of a.i./ha; for pest or weed control at 30 g/ha / pest or weed control at 60 g/ha: read-out: Abutilon; for pest or weed control at 60 g/ha: 60 g of a.i./ha; for pest or weed control at 125 g/ha: 125 g of a.i./ha
Polygonum [3] = assay: Pre-emergence test (herbicidal action, Colby): Polygonum
Ipomoea = assay: Pre-emergence test (herbicidal action, Colby): Ipomoea
Datura [4] = assay: Pre-emergence test (herbicidal action, Colby): Datura
Chenopodium [5] = assay: Pre-emergence test (herbicidal action, Colby): Chenopodium
Eriochloa = assay: Pre-emergence test (herbicidal action, Colby): Eriochloa
Cassia = assay: Pre-emergence test (herbicidal action, Colby): Cassia
Lolium = assay: Pre-emergence test (herbicidal action, Colby): Lolium
Matricaria [6] = assay: Pre-emergence test (herbicidal action, Colby): Matricaria; settings: 125 g of a.i./ha
Stellaria = assay: Pre-emergence test (herbicidal action, Colby): Stellaria
Bromus = assay: Pre-emergence test (herbicidal action, Colby): Bromus
Galium [7] = assay: Pre-emergence test (herbicidal action, Colby): Galium
Viola = assay: Pre-emergence test (herbicidal action, Colby): Viola; settings: 125 g of a.i./ha
Veronica = assay: Post-emergence test (herbicidal action, Colby): Veronica
Excerpt: as §1, §2, §3, §4, §5, §6

Solanum = assay: Post-emergence test (herbicidal action, Colby): Solanum
Excerpt: as §1, §2, §3, §4, §5, §6

Datura [8] = assay: Post-emergence test (herbicidal action, Colby): Datura
Abutilon [9] = assay: Post-emergence test (herbicidal action, Colby): Abutilon; settings: 60 g of a.i./ha
Chenopodium [10] = assay: Post-emergence test (herbicidal action, Colby): Chenopodium; settings: 60 g of a.i./ha
Matricaria [11] = assay: Post-emergence test (herbicidal action, Colby): Matricaria; settings: 125 g of a.i./ha
Polygonum [12] = assay: Post-emergence test (herbicidal action, Colby): Polygonum; settings: 125 g of a.i./ha

Work on `O=C(O)COc1ccc(Cl)cc1Cl` [2,4-D, 2,4-dichloro-phenoxyacetic acid] yielded an Amaranthus (Amaranthus; 86 g of a.i./ha) of 30% and a Galium (Galium [1]; 86 g of a.i./ha) of 0%.

With `CC(C)c1nn(C(=O)NC(C)(C)C)c(=O)n1N` [amicarbazone, 4-amino-N-(1,1-dimethyl-ethyl)-4,5-dihydro-3-(1-methyl-ethyl)-5-oxo-1H-1,2,4-triazole-1-carboxamide] the “Cassia (pre-emergence test)” value (weeds; Table A22, 60 g of a.i./ha) was 80, the “Datura (pre-emergence test)” value (weeds; Table A22, 125 g of a.i./ha) was 50 and the “Polygonum (pre-emergence test)” value (weeds; Table A22, 125 g of a.i./ha) was 90. The Alopecurus (Alopecurus; 60 g of a.i./ha) was 20%, the Digitaria (Digitaria; 30 g of a.i./ha) was 20% and the Digitaria (Digitaria; 60 g of a.i./ha) was 60%. The Echinochloa (Echinochloa; 60 g of a.i./ha) was 0%, the Setaria (Setaria; 30 g of a.i./ha) was 20% and the Setaria (Setaria; 60 g of a.i./ha) was 20% and 30%. It also gave a pest or weed control at 30 g/ha (Abutilon [2]) of 20%, a pest or weed control at 60 g/ha (Abutilon [2]) of 99% and a Polygonum (Polygonum [3]; 60 g of a.i./ha) of 80%. For the same compound, the Ipomoea (Ipomoea; 30 g of a.i./ha) was 50%, the Datura (Datura [4]; 30 g of a.i./ha) was 0% and the Datura (Datura [4]; 60 g of a.i./ha) was 20%. It also gave a Chenopodium (Chenopodium [5]; 30 g of a.i./ha) of 50%, an Eriochloa (Eriochloa; 30 g of a.i./ha) of 30% and an Eriochloa (Eriochloa; 60 g of a.i./ha) of 70%. The Cassia (Cassia; 30 g of a.i./ha) was 70% and the Lolium (Lolium; 30 g of a.i./ha) was 0%.

For `CC(C)N(C(=O)COc1nnc(C(F)(F)F)s1)c1ccc(F)cc1` [flufenacet, N-(4-fluoro-phenyl)-N-i-propyl-2-(5-trifluoromethyl-1,3,4-thiadiazol-2-yl-oxy)-acetamide], the “Chenopodium (pre-emergence test)” value (weeds; Table 23, 30 g of a.i./ha) was 30, the “Ipomoea (pre-emergence test)” value (weeds; Table 23, 30 g of a.i./ha) was 50 and the “Lolium (pre-emergence test)” value (weeds; Table 23, 30 g of a.i./ha) was 70. For the same compound, the “Setaria (pre-emergence test)” value (weeds; Table 23, 30 g of a.i./ha) was 70, the “Chenopodium (pre-emergence test)” value (weeds; Table 23, 60 g of a.i./ha) was 50 and the “Eriochloa (pre-emergence test)” value (weeds; Table 23, 60 g of a.i./ha) was 90. For the same compound, the “Galium (pre-emergence test)” value (weeds; Table 23, 60 g of a.i./ha) was 40, the “Setaria (pre-emergence test)” value (weeds; Table 23, 60 g of a.i./ha) was 90 and the “Chenopodium (pre-emergence test)” value (weeds; Table A21, 60 g of a.i./ha) was 50. The “Ipomoea (pre-emergence test)” value (weeds; Table A21, 60 g of a.i./ha) was 70, the “Polygonum (pre-emergence test)” value (weeds; Table A21, 60 g of a.i./ha) was 0 and the “Datura (pre-emergence test)” value (weeds; Table A21, 125 g of a.i./ha) was 50. The “Ipomoea (pre-emergence test)” value (weeds; Table A21, 125 g of a.i./ha) was 80, the “Polygonum (pre-emergence test)” value (weeds; Table A21, 125 g of a.i./ha) was 30 and the Alopecurus (Alopecurus; 60 g of a.i./ha) was 70%. For the same compound, the Digitaria (Digitaria; 30 g of a.i./ha) was 80%, the Digitaria (Digitaria; 60 g of a.i./ha) was 80% and the Echinochloa (Echinochloa; 60 g of a.i./ha) was 90%. The Setaria (Setaria; 30 g of a.i./ha) was 70%, the Setaria (Setaria; 60 g of a.i./ha) was 80% and 90% and the pest or weed control at 30 g/ha (Abutilon [2]) was 20%. For the same compound, the pest or weed control at 60 g/ha (Abutilon [2]) was 20%, the pest or weed control at 125 g/ha (Abutilon [2]) was 20% and the Matricaria (Matricaria [6]) was 60%. The Polygonum (Polygonum [3]; 30 g of a.i./ha) was 20%, the Polygonum (Polygonum [3]; 60 g of a.i./ha) was 30% and the Stellaria (Stellaria; 60 g of a.i./ha) was 50%. It also gave a Stellaria (Stellaria; 125 g of a.i./ha) of 70%, an Ipomoea (Ipomoea; 30 g of a.i./ha) of 30% and an Ipomoea (Ipomoea; 60 g of a.i./ha) of 30%. For the same compound, the Ipomoea (Ipomoea; 125 g of a.i./ha) was 30%, the Datura (Datura [4]; 30 g of a.i./ha) was 20% and the Datura (Datura [4]; 60 g of a.i./ha) was 40%. For the same compound, the Chenopodium (Chenopodium [5]; 30 g of a.i./ha) was 30%, the Chenopodium (Chenopodium [5]; 60 g of a.i./ha) was 50% and the Eriochloa (Eriochloa; 30 g of a.i./ha) was 80%. The Cassia (Cassia; 60 g of a.i./ha) was 60%, the Bromus (Bromus; 60 g of a.i./ha) was 30% and the Galium (Galium [7]; 30 g of a.i./ha) was 30%. For the same compound, the Lolium (Lolium; 60 g of a.i./ha) was 80%.

`CCc1cccc(C)c1N(C(=O)CCl)[C@@H](C)COC` [metolachlor, (S)-2-chloro-N-(2-ethyl-6-methyl-phenyl)-N-(2-methoxy-1-methylethyl)-acetamide] gave a Digitaria (Digitaria; 250 g of a.i./ha) of 90%, a pest or weed control at 125 g/ha (Abutilon [2]) of 30% and a pest or weed control at 250 g/ha (Abutilon [2]; 250 g of a.i./ha) of 30%. It also gave a Stellaria (Stellaria; 125 g of a.i./ha) of 30%, a Stellaria (Stellaria; 250 g of a.i./ha) of 80% and an Ipomoea (Ipomoea; 250 g of a.i./ha) of 30%. For the same compound, the Viola (Viola) was 50%.

With `CSc1nnc(C(C)(C)C)c(=O)n1N` [metribuzin, 4-amino-6-tert-butyl-3-methylthio-1,2,4-triazin-5(4H)-one] the “Chenopodium (pre-emergence test)” value (weeds; Table 23, 30 g of a.i./ha) was 30, the “Lolium (pre-emergence test)” value (weeds; Table 23, 30 g of a.i./ha) was 0 and the “Setaria (pre-emergence test)” value (weeds; Table 23, 30 g of a.i./ha) was 20. The “Eriochloa (pre-emergence test)” value (weeds; Table 23, 60 g of a.i./ha) was 0, the “Galium (pre-emergence test)” value (weeds; Table 23, 60 g of a.i./ha) was 20 and the “Ipomoea (pre-emergence test)” value (weeds; Table 23, 60 g of a.i./ha) was 0. The “Setaria (pre-emergence test)” value (weeds; Table 23, 60 g of a.i./ha) was 80, the “Cassia (pre-emergence test)” value (weeds; Table A26, 60 g of a.i./ha) was 80 and the “Echinochloa (pre-emergence test)” value (weeds; Table A26, 60 g of a.i./ha) was 30. The “Matricaria (pre-emergence test)” value (weeds; Table A26, 60 g of a.i./ha) was 60, the “Avena (pre-emergence test)” value (weeds; Table A26, 125 g of a.i./ha) was 40 and the “Digitaria (pre-emergence test)” value (weeds; Table A26, 125 g of a.i./ha) was 90. The “Echinochloa (pre-emergence test)” value (weeds; Table A26, 125 g of a.i./ha) was 80, the “Lolium (pre-emergence test)” value (weeds; Table A26, 125 g of a.i./ha) was 70 and the “Matricaria (pre-emergence test)” value (weeds; Table A26, 125 g of a.i./ha) was 70. The “Setaria (pre-emergence test)” value (weeds; Table A26, 125 g of a.i./ha) was 80, the Alopecurus (Alopecurus; 30 g of a.i./ha) was 0% and the Digitaria (Digitaria; 30 g of a.i./ha) was 30%. It also gave a Digitaria (Digitaria; 60 g of a.i./ha) of 80%, an Echinochloa (Echinochloa; 60 g of a.i./ha) of 0% and an Echinochloa (Echinochloa; 125 g of a.i./ha) of 80%. The pest or weed control at 30 g/ha (Abutilon [2]) was 80%, the pest or weed control at 60 g/ha (Abutilon [2]) was 90% and the Polygonum (Polygonum [3]; 60 g of a.i./ha) was 40%. The Ipomoea (Ipomoea; 30 g of a.i./ha) was 0%, the Datura (Datura [4]; 30 g of a.i./ha) was 20% and the Datura (Datura [4]; 60 g of a.i./ha) was 30%. The Chenopodium (Chenopodium [5]; 60 g of a.i./ha) was 50%, the Bromus (Bromus; 30 g of a.i./ha) was 0% and the Galium (Galium [7]; 60 g of a.i./ha) was 0%.

With `Cc1nn(-c2cc(NS(C)(=O)=O)c(Cl)cc2Cl)c(=O)n1C(F)F` [sulfentrazone, 2-(2,4-dichloro-5-methylsulphonylamino-phenyl)-4-difluoromethyl-5-methyl-2,4-dihydro-3H-1,2,4-triazol-3-one] the Veronica (Veronica; 60 g of a.i./ha) was 0%, the Veronica (Veronica; 125 g of a.i./ha) was 20% and the Solanum (Solanum; 60 g of a.i./ha) was 0%. The Solanum (Solanum; 125 g of a.i./ha) was 0%, the Amaranthus (Amaranthus; 60 g of a.i./ha) was 90% and the Galium (Galium [1]; 60 g of a.i./ha) was 0%. The Datura (Datura [8]; 60 g of a.i./ha) was 0%, the Datura (Datura [8]; 125 g of a.i./ha) was 0% and the Abutilon (Abutilon [9]) was 0%. It also gave a Chenopodium (Chenopodium [10]) of 60%, a Matricaria (Matricaria [11]) of 0% and a Polygonum (Polygonum [12]) of 50%.
